Laboratory results: patent US20250170079A1, “COMBINATIONS OF STAT-INHIBITORS AND IMMUNE CHECKPOINT INHIBITORS FOR THE TREATMENT AND/OR MANAGEMENT OF CANCER” (Tvardi Therapeutics, Inc., priority 2022, published 2025)

Experiments:
[1] = tested on: subcutaneous liver cancer syngeneic model H22; test: In vivo efficacy study of TTI-101 ± anti-PD-1 in subcutaneous liver cancer syngeneic model H22; parameters: species or system female BALB/c mice; conditions: TTI-101 1.2 mg/mouse p.o. BID*3 weeks and/or anti-PD-1 10 mg/kg i.p. BIW*3 weeks
Text: The objective of efficacy study was to evaluate preclinically the in vivo therapeutic efficacy of TTI-101 alone and in combination with anti-PD-1 in the treatment of subcutaneous liver cancer syngeneic model H22 in female BALB/c mice. The objective of rechallenge study was to evaluate immune memory of the female BALB/c mice previously cured from subcutaneous liver cancer syngeneic model H22 by TTI-101 combined with anti-PD-1.
Dosing volume of Anti-PD-1 (clone RMP1-14) was adjusted for body weight. The concentration of anti-PD-1 was 1 mg/mL, and dosing volume was 10 μL/g. The anti-PD-1 dosing solution was prepared by diluting 1.372 mL of anti-PD-1 (8.2 mg/mL) with 9.878 mL of PBS.
A composition of TTI-101 (72 mg/mL) dissolved in Kolliphor RH40, PEG600, Labrasol, Tween 20, and citric acid solution, was then dispersed in 1:2 water (vortexed) to form the dosing emulsion. The concentration of TTI-101 in the dosing emulsion was 24 mg/mL.
The H22 tumor cells were maintained in vitro with RPMI1640 medium supplemented with 10% fetal bovine serum (FBS) at 37° C. in an atmosphere of 5% CO2 in air. The cells in exponential growth phase were harvested and quantitated by cell counter before tumor inoculation.
In efficacy study, each mouse was inoculated subcutaneously in the right front flank region with tumor cells (1×10^6) in 0.1 ml of PBS for tumor development.
The randomization in efficacy study started when the mean tumor size reached approximately 73 mm^3 (for groups 1-5) and 96 mm^3 (for groups 6-9). Totally 82 mice were enrolled in the study and randomly allocated to 9 study groups, with 10 mice per group (groups 1-5) and 8 mice per group (groups 6-9). Randomization was performed based on “Matched distribution” method (Study Director TM software, version 3.1.399.19). The date of randomization was denoted as Day 1.
Test articles were given between 8 am-9 am then again between 4 pm-5 pm.
For group 5, TTI-101 was initiated 5 days post anti-PD-1 dosing per the request.
Tumor volumes were measured twice per week after randomization in two dimensions using a caliper, and the volume was expressed in mm^3 using the formula: V=(L×W×W)/2, where V is tumor volume, L is tumor length (the longest tumor dimension) and W is tumor width (the longest tumor dimension perpendicular to L). Dosing as well as tumor and body weight measurements were conducted in a Laminar Flow Cabinet.
Tumor growth inhibition (TGI), T/C value and Survival was applied at the endpoint.
Tumor regression (REG)=[(T0−Ti)/T0]×100%;
Tumor Growth Inhibition; TGI %=(1−Ti/Ci)*100;
Treatment/Control (T/C) value (%) is an indicator of tumor response to treatment, and one of commonly used anti-tumor activity endpoint; T and C are the mean tumor volumes of the treatment and control groups, respectively, on a given day. […]

[2] = Bioavailability and pharmacokinetics of TTI-101 following IP or PO administration; assay type: in vivo, male Sprague-Dawley rats; conditions: PO 25 mg/kg vs IP 25.6 mg/kg, single dose, rats
Protocol: Bioavailability and pharmacokinetics of TTI-101 in male Sprague-Dawley rats were evaluated following a single oral (PO) dose at 25 mg/kg (in labrasol:PEG400, 60:40% v/v) and a single intraperitoneal (IP) dose at 25.6 mg/kg (pH 7.4 PBS/propylene glycol/ethanol/DMSO, 20:70:5:5% v/v).

[3] = Day 21, vs vehicle+isotype group

With COc1ccc(S(=O)(=O)Nc2cc(-c3c(O)ccc4ccccc34)c(O)c3ccccc23)cc1 [TTI-101, N-(1′,2-dihydroxy-1,2′-binaphthalen-4′-yl)-4-methoxybenzenesulfonamide] the “T/C (%) on Day 21” value [1, 3] was 78.33%, the “TGI (%) on Day 21” value [1, 3] was 21.67% and the “CR Ratio (tumor complete response, tumor regressed to 0)” value ([1]; animals with CR / animals per group) was 0/10. For the same molecule, the “Tumor volume (mm^3) (N) on Day 21” value ([1]; mean ± SEM, Day 21) was 2073.36 mm^3 and the “greater exposure by oral administration compared to interperitoneal administration” value [2] was 90%.
